Measurements published in US20250368619A1, “SUBSTITUTED TETRAHYDROCYCLOHEPTA[E]INDOLE DERIVATIVES, PROCESSES FOR THEIR PREPARATION AND THERAPEUTIC USES THEREOF” (SANOFI, priority 2022, published 2025).

Target: T1, ERα (Homo sapiens, UniProt P03372)
T1 construct: host or cells: MCF7
T1 sequence (P03372 1-595): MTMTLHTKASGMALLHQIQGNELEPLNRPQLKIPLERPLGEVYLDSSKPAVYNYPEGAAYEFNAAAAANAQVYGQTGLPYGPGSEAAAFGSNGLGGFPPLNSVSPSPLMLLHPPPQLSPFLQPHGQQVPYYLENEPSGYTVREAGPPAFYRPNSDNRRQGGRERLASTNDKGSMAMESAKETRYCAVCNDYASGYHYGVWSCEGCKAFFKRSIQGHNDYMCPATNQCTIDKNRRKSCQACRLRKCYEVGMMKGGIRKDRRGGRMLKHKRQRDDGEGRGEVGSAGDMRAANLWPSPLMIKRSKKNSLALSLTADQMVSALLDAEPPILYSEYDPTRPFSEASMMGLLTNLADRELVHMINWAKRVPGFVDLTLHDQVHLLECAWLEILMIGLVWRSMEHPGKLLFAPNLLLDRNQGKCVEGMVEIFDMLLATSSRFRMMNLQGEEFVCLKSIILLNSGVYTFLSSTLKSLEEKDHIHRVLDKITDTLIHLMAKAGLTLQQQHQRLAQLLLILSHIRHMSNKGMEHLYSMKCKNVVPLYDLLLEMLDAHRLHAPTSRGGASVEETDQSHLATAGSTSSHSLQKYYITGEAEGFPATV
Experiment: Estrogen receptor degradation activity: breast cancer cell ERα in cell western assay in MCF7 cells
Type: cell-based
Settings: 4 hours, relative to fulvestrant 0.1 μM positive control
Method: Test: Estrogen receptor degradation activity
Said test involves measuring the in vitro degradation activity of the compounds of the table 1.
The measurements of the degradation activities were made using a breast cancer cell ERα in cell western assay as described hereunder.
MCF7 cells (ATCC) were seeded in 384 wells microplate (collagen coated) at a concentration of 10000 cells/30 μL per well in red phenol free MEM alpha medium (invitrogen) containing 5% charcoal dextran striped FBS. The following day, 9 points serial 1:5 dilution of each compound was added to the cells in 2.5 μL at final concentrations ranging from 0.3-0.0000018 μM (in table 2), or 0.1 μM for fulvestrant (using as positive control). At 4 hours post compound addition the cells were fixed by adding 25 μL of formalin (final concentration 5% formalin containing 0.1% triton) for 10 minutes at RT and then washed twice with PBS. Then, 50 μL of LI-COR blocking buffer containing 0.1% Triton was added to plate for 30 minutes at RT. LI-COR blocking buffer was removed and cells were incubated overnight at cold room with 50 μL anti-ER rabbit monoclonal antibody (Thermo scientific MA1-39540) diluted at 1:1000 in LI-COR blocking buffer containing 0.1% tween-20. Wells which were treated with blocking buffer but no antibody were used as background control. Wells were washed twice with PBS (0.1% tween-20) and incubated at 37° C. for 60 minutes in LI-COR (0.1% tween-20) containing goat anti-rabbit antibody Alexa 488 (1:1000) and Syto-64 a DNA dye (2 μM final concentration). Cells were then washed 3 times in PBS and scanned in ACUMEN explorer (TTP-Labtech). Integrated intensities in the green fluorescence and red fluorescence were measured to determine the levels of ERα and DNA respectively.
The degradation activity with respect to estrogen receptors in this test is given by the concentration which degrades 50% of the estrogen receptor (or IC50) in nM.
The % of ERα levels decrease were determined as follows: % inhibition=100*(1−(sample−fulvestrant:DMSO−fulvestrant)).

| % Degradation At 0.3 μM [%] | Compound |
| --- | --- |
| 65 | OCCc1cccc(C2=C(c3ccc(CC4CN(CCCF)C4)cc3)c3ccc4[nH]ccc4c3CCC2)c1 [Compound 21, 2-(3-(6-(4-((1-(3-fluoropropyl)azetidin-3-yl)methyl)phenyl)-3,8,9,10-tetrahydrocyclohepta[e]indol-7-yl)phenyl)ethan-1-ol] |
| 80 | O=C(O)C(F)(F)F.O=C(O)c1ccc(C2=C(c3ccc(CC4CN(CCCF)C4)cc3)c3ccc4[nH]ccc4c3CCC2)cc1 [Compound 23, 4-(6-(4-((1-(3-fluoropropyl)azetidin-3-yl)methyl)phenyl)-3,8,9,10-tetrahydrocyclohepta[e]indol-7-yl)benzoic acid, 2,2,2-trifluoroacetic acid] |
| 71 | OCc1cccc(C2=C(c3ccc(CC4CN(CCCF)C4)cc3)c3ccc4[nH]ccc4c3CCC2)c1 [Compound 19, (3-(6-(4-((1-(3-fluoropropyl)azetidin-3-yl)methyl)phenyl)-3,8,9,10-tetrahydrocyclohepta[e]indol-7-yl)phenyl)methanol] |
| 82 | FCCCN1CC(Cc2ccc(C3=C(c4ccc(Cl)cc4Cl)CCCc4c3ccc3[nH]ccc43)cc2)C1 [Compound 7, 7-(2,4-dichlorophenyl)-6-(4-((1-(3-fluoropropyl)azetidin-3-yl)methyl)phenyl)-3,8,9,10-tetrahydrocyclohepta[e]indole] |
| 91 | Cc1c(Cl)cccc1C1=C(c2ccc(N[C@H]3CCN(CCCF)C3)cc2)c2ccc3[nH]ccc3c2CCC1 [Compound 28, (S)-N-(4-(7-(3-chloro-2-methylphenyl)-3,8,9,10-tetrahydrocyclohepta[e]indol-6-yl)phenyl)-1-(3-fluoropropyl)pyrrolidin-3-amine] |
